{"source": "ChEMBL document CHEMBL4507320", "about": "“Data for DCP probe NVS-MALT1” (2021)", "key": {"[1]": {"target": "Cyclin-dependent kinase 8 (Homo sapiens) (UniProt P49336)", "conditions": "Compound concentration 1000.0 nM"}, "[2]": {"target": "Dual specificity mitogen-activated protein kinase kinase 5 (Homo sapiens) (UniProt Q13163)", "conditions": "Compound concentration 1000.0 nM"}, "[3]": {"target": "Insulin receptor (Homo sapiens) (UniProt P06213)", "conditions": "Compound concentration 1000.0 nM"}, "[4]": {"target": "Mitogen-activated protein kinase 1 (Homo sapiens) (UniProt P28482)", "conditions": "Compound concentration 1000.0 nM"}, "[5]": {"tested_on": "Tyrosine-protein kinase ABL1 (Homo sapiens), P00519 [E255K]", "conditions": "Compound concentration 1000.0 nM"}, "[6]": {"target": "Serine/threonine-protein kinase 17B (Homo sapiens) (UniProt O94768)", "conditions": "Compound concentration 1000.0 nM"}, "[7]": {"target": "Cyclin-dependent kinase 5 (Homo sapiens) (UniProt Q00535)", "conditions": "Compound concentration 1000.0 nM"}, "[8]": {"target": "Serine/threonine-protein kinase SIK1 (Homo sapiens) (UniProt P57059)", "conditions": "Compound concentration 1000.0 nM"}, "[9]": {"target": "Protein kinase C iota type (Homo sapiens) (UniProt P41743)", "conditions": "Compound concentration 1000.0 nM"}, "[10]": {"tested_on": "Phosphatidylinositol 4,5-bisphosphate 3-kinase catalytic subunit alpha isoform (Homo sapiens), P42336 [I800L]", "sequence (P42336 whole entry I800L, canonical isoform)": "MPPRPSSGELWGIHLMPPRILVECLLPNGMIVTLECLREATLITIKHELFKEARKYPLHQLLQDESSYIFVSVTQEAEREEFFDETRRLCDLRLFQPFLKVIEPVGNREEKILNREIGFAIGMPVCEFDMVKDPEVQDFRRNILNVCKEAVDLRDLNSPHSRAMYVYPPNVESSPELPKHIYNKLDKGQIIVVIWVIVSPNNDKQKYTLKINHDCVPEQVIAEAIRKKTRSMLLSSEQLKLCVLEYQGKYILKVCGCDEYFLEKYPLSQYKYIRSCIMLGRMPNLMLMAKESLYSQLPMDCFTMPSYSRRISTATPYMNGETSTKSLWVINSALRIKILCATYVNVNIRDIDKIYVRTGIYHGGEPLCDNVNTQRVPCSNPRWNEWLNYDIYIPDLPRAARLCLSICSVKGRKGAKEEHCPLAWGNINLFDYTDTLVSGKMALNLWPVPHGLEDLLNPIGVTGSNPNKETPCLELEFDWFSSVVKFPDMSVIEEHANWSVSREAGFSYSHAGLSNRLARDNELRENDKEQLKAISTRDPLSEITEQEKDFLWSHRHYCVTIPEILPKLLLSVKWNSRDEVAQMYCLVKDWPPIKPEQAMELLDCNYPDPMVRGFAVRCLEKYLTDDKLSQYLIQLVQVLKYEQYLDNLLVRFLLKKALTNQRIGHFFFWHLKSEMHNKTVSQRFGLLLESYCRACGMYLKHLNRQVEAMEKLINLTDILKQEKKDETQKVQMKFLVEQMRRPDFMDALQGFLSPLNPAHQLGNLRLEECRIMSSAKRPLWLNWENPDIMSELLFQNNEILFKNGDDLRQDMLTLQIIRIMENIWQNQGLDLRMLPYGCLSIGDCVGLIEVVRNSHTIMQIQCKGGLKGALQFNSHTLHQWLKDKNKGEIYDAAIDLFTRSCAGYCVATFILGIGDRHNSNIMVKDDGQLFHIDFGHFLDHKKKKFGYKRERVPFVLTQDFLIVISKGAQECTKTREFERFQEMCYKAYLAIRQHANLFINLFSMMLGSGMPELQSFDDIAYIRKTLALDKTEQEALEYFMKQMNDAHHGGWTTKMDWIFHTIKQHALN", "conditions": "Compound concentration 1000.0 nM"}, "[11]": {"tested_on": "Fibroblast growth factor receptor 3 (Homo sapiens), P22607 [G697C]", "sequence (P22607 whole entry G697C)": "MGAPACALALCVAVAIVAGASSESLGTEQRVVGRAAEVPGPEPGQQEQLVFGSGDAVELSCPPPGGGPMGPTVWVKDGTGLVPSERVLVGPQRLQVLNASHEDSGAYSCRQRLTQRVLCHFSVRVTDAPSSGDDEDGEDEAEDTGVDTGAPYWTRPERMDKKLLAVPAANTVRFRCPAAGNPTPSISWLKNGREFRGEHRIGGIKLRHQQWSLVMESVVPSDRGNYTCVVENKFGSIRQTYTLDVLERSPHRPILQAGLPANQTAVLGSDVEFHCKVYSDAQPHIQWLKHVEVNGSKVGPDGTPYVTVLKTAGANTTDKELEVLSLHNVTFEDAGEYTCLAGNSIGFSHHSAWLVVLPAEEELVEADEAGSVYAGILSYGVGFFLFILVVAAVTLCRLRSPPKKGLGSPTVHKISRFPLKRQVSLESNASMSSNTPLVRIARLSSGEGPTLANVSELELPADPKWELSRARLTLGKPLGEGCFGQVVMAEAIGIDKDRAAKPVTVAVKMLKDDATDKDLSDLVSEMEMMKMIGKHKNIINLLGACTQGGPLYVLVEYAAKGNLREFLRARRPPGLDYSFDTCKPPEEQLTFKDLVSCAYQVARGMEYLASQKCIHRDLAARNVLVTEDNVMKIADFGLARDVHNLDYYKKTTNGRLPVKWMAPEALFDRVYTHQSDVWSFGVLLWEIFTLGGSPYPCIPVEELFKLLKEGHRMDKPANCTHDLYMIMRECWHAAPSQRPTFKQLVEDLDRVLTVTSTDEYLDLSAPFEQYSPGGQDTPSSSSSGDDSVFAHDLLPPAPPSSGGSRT", "conditions": "Compound concentration 1000.0 nM"}, "[12]": {"target": "Dual serine/threonine and tyrosine protein kinase (Homo sapiens) (UniProt Q6XUX3)", "sequence (Q6XUX3 whole entry)": "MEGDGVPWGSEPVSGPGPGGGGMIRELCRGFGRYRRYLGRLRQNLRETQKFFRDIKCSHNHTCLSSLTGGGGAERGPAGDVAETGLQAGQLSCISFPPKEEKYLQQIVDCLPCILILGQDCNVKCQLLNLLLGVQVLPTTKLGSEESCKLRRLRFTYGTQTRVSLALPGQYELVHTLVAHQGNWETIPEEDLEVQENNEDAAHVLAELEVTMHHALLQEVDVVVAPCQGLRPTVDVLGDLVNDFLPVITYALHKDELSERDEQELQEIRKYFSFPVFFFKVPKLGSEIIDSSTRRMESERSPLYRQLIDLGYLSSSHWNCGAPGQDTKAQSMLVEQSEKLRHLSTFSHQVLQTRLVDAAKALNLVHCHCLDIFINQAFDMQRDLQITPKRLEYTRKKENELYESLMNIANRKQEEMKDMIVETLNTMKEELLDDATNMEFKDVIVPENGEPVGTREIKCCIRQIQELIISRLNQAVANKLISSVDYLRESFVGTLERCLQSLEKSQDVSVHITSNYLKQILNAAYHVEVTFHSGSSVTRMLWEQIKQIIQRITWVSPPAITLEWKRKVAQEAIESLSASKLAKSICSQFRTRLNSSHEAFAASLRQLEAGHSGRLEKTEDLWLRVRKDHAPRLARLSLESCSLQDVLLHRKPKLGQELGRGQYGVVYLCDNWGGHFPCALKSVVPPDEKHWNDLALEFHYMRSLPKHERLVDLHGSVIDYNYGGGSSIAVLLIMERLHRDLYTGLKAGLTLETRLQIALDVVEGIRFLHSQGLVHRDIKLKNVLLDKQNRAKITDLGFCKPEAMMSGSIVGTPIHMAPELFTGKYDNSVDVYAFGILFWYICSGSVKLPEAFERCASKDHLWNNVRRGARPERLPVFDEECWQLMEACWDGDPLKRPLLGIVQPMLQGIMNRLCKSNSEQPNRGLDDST", "conditions": "Compound concentration 1000.0 nM"}, "[13]": {"target": "Serine/threonine-protein kinase ULK2 (Homo sapiens) (UniProt Q8IYT8)", "conditions": "Compound concentration 1000.0 nM"}, "[14]": {"target": "Serine/threonine-protein kinase ICK (Homo sapiens) (UniProt Q9UPZ9)", "conditions": "Compound concentration 1000.0 nM"}, "[15]": {"target": "STE20-like serine/threonine-protein kinase (Homo sapiens) (UniProt Q9H2G2)", "conditions": "Compound concentration 1000.0 nM"}, "[16]": {"target": "Non-receptor tyrosine-protein kinase TNK1 (Homo sapiens) (UniProt Q13470)", "conditions": "Compound concentration 1000.0 nM"}, "[17]": {"target": "Ribosomal protein S6 kinase alpha-1 (Homo sapiens) (UniProt Q15418)", "conditions": "Compound concentration 1000.0 nM"}, "[18]": {"target": "Death-associated protein kinase 2 (Homo sapiens) (UniProt Q9UIK4)", "conditions": "Compound concentration 1000.0 nM"}, "[19]": {"tested_on": "Mast/stem cell growth factor receptor Kit (Homo sapiens), P10721 [V559D,T670I]", "conditions": "Compound concentration 1000.0 nM"}, "[20]": {"target": "Ribosomal protein S6 kinase alpha-6 (Homo sapiens) (UniProt Q9UK32)", "conditions": "Compound concentration 1000.0 nM"}, "[21]": {"target": "Serine/threonine-protein kinase tousled-like 1 (Homo sapiens) (UniProt Q9UKI8)", "sequence (Q9UKI8 whole entry)": "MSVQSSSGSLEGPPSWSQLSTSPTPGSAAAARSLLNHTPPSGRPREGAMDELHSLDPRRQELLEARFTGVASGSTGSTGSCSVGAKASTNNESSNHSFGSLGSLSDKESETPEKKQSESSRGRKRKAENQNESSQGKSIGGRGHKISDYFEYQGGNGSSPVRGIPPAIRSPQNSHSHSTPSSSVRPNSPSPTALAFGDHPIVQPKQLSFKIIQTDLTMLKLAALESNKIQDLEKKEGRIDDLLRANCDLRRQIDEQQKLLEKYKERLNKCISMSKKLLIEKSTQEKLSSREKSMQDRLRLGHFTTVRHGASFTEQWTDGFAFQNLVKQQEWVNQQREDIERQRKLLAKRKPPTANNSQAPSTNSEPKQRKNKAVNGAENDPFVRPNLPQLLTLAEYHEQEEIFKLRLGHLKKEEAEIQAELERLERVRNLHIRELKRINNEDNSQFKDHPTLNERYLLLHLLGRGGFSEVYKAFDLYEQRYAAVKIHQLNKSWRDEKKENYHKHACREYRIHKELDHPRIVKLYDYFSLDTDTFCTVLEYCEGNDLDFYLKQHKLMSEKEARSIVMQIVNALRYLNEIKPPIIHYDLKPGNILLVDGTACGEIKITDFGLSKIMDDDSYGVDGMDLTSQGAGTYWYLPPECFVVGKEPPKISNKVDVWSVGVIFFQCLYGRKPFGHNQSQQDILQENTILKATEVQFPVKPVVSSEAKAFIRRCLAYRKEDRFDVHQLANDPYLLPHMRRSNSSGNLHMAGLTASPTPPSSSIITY", "conditions": "Compound concentration 1000.0 nM"}, "[22]": {"target": "T1, Mucosa-associated lymphoid tissue lymphoma translocation protein 1 (Homo sapiens, UniProt Q9UDY8)", "T1 sequence (Q9UDY8 whole entry)": "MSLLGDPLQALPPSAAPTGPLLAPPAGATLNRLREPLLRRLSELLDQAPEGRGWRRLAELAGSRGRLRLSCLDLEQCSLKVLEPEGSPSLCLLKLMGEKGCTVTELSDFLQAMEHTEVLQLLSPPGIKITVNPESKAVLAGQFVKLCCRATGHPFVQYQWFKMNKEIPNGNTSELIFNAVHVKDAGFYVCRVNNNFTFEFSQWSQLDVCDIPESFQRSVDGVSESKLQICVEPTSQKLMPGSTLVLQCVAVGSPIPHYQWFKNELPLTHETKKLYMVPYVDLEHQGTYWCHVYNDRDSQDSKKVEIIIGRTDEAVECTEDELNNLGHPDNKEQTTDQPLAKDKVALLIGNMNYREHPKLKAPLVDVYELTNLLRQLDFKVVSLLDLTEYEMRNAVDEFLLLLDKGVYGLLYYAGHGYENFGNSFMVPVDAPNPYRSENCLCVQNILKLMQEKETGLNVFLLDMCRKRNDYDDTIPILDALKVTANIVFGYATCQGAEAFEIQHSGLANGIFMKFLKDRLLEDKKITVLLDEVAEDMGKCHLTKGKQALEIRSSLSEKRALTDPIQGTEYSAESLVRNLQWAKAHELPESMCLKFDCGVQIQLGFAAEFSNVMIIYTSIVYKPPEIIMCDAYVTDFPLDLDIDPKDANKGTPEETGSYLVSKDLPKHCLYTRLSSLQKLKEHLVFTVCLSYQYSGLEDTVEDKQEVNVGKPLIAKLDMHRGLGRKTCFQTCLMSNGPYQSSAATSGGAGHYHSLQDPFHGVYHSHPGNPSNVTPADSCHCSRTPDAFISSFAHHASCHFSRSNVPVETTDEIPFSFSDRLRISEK", "experiment": "Jurkat IL-2 (IL2-RGA PMA + anti-CD28)", "assay_type": "cell-based"}, "[23]": {"target": "Serine/threonine-protein kinase 16 (Homo sapiens) (UniProt O75716)", "conditions": "Compound concentration 1000.0 nM"}, "[24]": {"target": "Receptor-type tyrosine-protein kinase FLT3 (Homo sapiens, UniProt P36888)", "conditions": "Compound concentration 1000.0 nM"}, "[25]": {"target": "Serine/threonine-protein kinase DCLK2 (Homo sapiens) (UniProt Q8N568)", "conditions": "Compound concentration 1000.0 nM"}, "[26]": {"target": "Serine/threonine-protein kinase PAK 4 (Homo sapiens) (UniProt O96013)", "conditions": "Compound concentration 1000.0 nM"}, "[27]": {"target": "Tyrosine-protein kinase BTK (Homo sapiens) (UniProt Q06187)", "conditions": "Compound concentration 1000.0 nM"}, "[28]": {"target": "Tyrosine-protein kinase ABL2 (Homo sapiens) (UniProt P42684)", "conditions": "Compound concentration 1000.0 nM"}, "[29]": {"target": "Inhibitor of nuclear factor kappa-B kinase subunit alpha (Homo sapiens) (UniProt O15111)", "conditions": "Compound concentration 1000.0 nM"}, "[30]": {"target": "Mitogen-activated protein kinase kinase kinase 11 (Homo sapiens) (UniProt Q16584)", "conditions": "Compound concentration 1000.0 nM"}, "[31]": {"target": "Serine/threonine-protein kinase Nek2 (Homo sapiens) (UniProt P51955)", "conditions": "Compound concentration 1000.0 nM"}, "[32]": {"target": "Mitogen-activated protein kinase kinase kinase 3 (Homo sapiens) (UniProt Q99759)", "conditions": "Compound concentration 1000.0 nM"}, "[33]": {"target": "Fibroblast growth factor receptor 1 (Homo sapiens) (UniProt P11362)", "sequence (P11362 22-822 limits assumed)": "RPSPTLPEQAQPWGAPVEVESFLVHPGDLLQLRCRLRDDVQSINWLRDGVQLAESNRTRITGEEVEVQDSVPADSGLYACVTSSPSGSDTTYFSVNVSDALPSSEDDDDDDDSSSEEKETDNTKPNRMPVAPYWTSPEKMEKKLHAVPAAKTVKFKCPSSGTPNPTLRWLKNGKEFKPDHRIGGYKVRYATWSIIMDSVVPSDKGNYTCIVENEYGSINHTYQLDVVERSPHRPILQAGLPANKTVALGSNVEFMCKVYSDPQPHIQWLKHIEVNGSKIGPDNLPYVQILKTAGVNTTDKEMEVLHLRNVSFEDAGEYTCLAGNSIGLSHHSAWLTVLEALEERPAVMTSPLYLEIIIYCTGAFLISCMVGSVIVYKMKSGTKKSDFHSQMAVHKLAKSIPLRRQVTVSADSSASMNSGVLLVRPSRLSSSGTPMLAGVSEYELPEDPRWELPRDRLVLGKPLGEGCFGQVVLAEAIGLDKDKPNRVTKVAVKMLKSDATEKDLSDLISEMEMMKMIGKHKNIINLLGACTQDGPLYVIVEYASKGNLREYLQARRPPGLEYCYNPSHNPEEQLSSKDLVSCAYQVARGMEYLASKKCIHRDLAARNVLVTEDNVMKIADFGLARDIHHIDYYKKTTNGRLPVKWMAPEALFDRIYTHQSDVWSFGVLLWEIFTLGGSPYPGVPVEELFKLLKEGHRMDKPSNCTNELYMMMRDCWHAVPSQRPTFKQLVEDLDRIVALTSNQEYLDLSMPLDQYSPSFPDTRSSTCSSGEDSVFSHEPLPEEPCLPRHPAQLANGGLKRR", "conditions": "Compound concentration 1000.0 nM"}, "[34]": {"target": "Muscarinic acetylcholine receptor M3 (Homo sapiens) (UniProt P20309)", "sequence (P20309 whole entry, looked up)": "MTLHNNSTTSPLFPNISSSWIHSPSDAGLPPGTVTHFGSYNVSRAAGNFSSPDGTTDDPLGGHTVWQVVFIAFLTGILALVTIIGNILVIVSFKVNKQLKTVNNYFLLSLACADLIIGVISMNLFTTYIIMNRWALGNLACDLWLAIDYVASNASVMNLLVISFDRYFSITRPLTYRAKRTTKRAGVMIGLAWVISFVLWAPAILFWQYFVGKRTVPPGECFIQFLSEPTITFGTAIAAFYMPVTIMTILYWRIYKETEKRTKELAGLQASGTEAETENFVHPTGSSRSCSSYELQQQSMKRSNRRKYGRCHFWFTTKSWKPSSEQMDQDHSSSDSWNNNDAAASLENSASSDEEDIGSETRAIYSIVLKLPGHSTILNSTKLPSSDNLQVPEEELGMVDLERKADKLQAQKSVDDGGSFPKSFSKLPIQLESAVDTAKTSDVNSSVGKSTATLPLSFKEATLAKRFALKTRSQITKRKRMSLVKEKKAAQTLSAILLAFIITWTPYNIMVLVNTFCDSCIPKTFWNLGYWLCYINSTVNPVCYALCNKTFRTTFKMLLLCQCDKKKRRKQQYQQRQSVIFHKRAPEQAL", "conditions": "Compound concentration 10.0 uM"}}, "note": "Calls of active or inactive are those of the source. No cut-off for these calls is given here."}
{"smiles": "CO[C@@H](C)c1c(Nc2ccc([C@H](N(C)C(=O)C3CCS(=O)(=O)CC3)C(F)(F)F)cc2)cnc2cc(Cl)nn12", "note": "[NVS-MALT1]", "values": [{"measurement": "residual activity", "setting": "[1]", "value": 39, "unit": "%"}, {"measurement": "residual activity", "setting": "[2]", "value": 60, "unit": "%"}, {"measurement": "residual activity", "setting": "[3]", "value": 87, "unit": "%"}, {"measurement": "residual activity", "setting": "[4]", "value": 100, "unit": "%"}, {"measurement": "residual activity", "setting": "[5]", "value": 76, "unit": "%"}, {"measurement": "residual activity", "setting": "[6]", "value": 99, "unit": "%"}, {"measurement": "residual activity", "setting": "[7]", "value": 96, "unit": "%"}, {"measurement": "residual activity", "setting": "[8]", "value": 87, "unit": "%"}, {"measurement": "residual activity", "setting": "[9]", "value": 72, "unit": "%"}, {"measurement": "residual activity", "setting": "[10]", "value": 55, "unit": "%"}, {"measurement": "residual activity", "setting": "[11]", "value": 86, "unit": "%"}, {"measurement": "residual activity", "setting": "[12]", "value": 100, "unit": "%"}, {"measurement": "residual activity", "setting": "[13]", "value": 96, "unit": "%"}, {"measurement": "residual activity", "setting": "[14]", "value": 70, "unit": "%"}, {"measurement": "residual activity", "setting": "[15]", "value": 81, "unit": "%"}, {"measurement": "residual activity", "setting": "[16]", "value": 100, "unit": "%"}, {"measurement": "residual activity", "setting": "[17]", "value": 91, "unit": "%"}, {"measurement": "residual activity", "setting": "[18]", "value": 86, "unit": "%"}, {"measurement": "residual activity", "setting": "[19]", "value": 86, "unit": "%"}, {"measurement": "residual activity", "setting": "[20]", "value": 91, "unit": "%"}, {"measurement": "residual activity", "setting": "[21]", "value": 100, "unit": "%"}, {"measurement": "IC50", "setting": "[22]", "value": "3.4 nM (active)"}, {"measurement": "residual activity", "setting": "[23]", "value": 75, "unit": "%"}, {"measurement": "residual activity", "setting": "[24]", "value": 100, "unit": "%"}, {"measurement": "residual activity", "setting": "[25]", "value": 90, "unit": "%"}, {"measurement": "residual activity", "setting": "[26]", "value": 95, "unit": "%"}, {"measurement": "residual activity", "setting": "[27]", "value": 100, "unit": "%"}, {"measurement": "residual activity", "setting": "[28]", "value": 85, "unit": "%"}, {"measurement": "residual activity", "setting": "[29]", "value": 100, "unit": "%"}, {"measurement": "residual activity", "setting": "[30]", "value": 79, "unit": "%"}, {"measurement": "residual activity", "setting": "[31]", "value": 100, "unit": "%"}, {"measurement": "residual activity", "setting": "[32]", "value": 73, "unit": "%"}, {"measurement": "residual activity", "setting": "[33]", "value": 74, "unit": "%"}, {"measurement": "inhibition", "setting": "[34]", "value": -8.44, "unit": "%"}]}
{"smiles": "CO[C@@H](C)c1c(Nc2ccc([C@@H](N(C)C(=O)C3CCS(=O)(=O)CC3)C(F)(F)F)cc2)cnc2cc(Cl)nn12", "note": "[NVS-MALT1-C]", "values": [{"measurement": "residual activity", "setting": "[1]", "value": 96, "unit": "%"}, {"measurement": "residual activity", "setting": "[2]", "value": 91, "unit": "%"}, {"measurement": "residual activity", "setting": "[3]", "value": 95, "unit": "%"}, {"measurement": "residual activity", "setting": "[4]", "value": 100, "unit": "%"}, {"measurement": "residual activity", "setting": "[5]", "value": 75, "unit": "%"}, {"measurement": "residual activity", "setting": "[6]", "value": 98, "unit": "%"}, {"measurement": "residual activity", "setting": "[7]", "value": 99, "unit": "%"}, {"measurement": "residual activity", "setting": "[8]", "value": 85, "unit": "%"}, {"measurement": "residual activity", "setting": "[9]", "value": 76, "unit": "%"}, {"measurement": "residual activity", "setting": "[10]", "value": 71, "unit": "%"}, {"measurement": "residual activity", "setting": "[11]", "value": 84, "unit": "%"}, {"measurement": "residual activity", "setting": "[12]", "value": 100, "unit": "%"}, {"measurement": "residual activity", "setting": "[13]", "value": 92, "unit": "%"}, {"measurement": "residual activity", "setting": "[14]", "value": 96, "unit": "%"}, {"measurement": "residual activity", "setting": "[15]", "value": 83, "unit": "%"}, {"measurement": "residual activity", "setting": "[16]", "value": 87, "unit": "%"}, {"measurement": "residual activity", "setting": "[17]", "value": 99, "unit": "%"}, {"measurement": "residual activity", "setting": "[18]", "value": 41, "unit": "%"}, {"measurement": "residual activity", "setting": "[19]", "value": 82, "unit": "%"}, {"measurement": "residual activity", "setting": "[20]", "value": 98, "unit": "%"}, {"measurement": "residual activity", "setting": "[21]", "value": 100, "unit": "%"}, {"measurement": "IC50", "setting": "[22]", "value": "1900 nM (active)"}, {"measurement": "residual activity", "setting": "[23]", "value": 100, "unit": "%"}, {"measurement": "residual activity", "setting": "[24]", "value": 94, "unit": "%"}, {"measurement": "residual activity", "setting": "[25]", "value": 95, "unit": "%"}, {"measurement": "residual activity", "setting": "[26]", "value": 100, "unit": "%"}, {"measurement": "residual activity", "setting": "[27]", "value": 100, "unit": "%"}, {"measurement": "residual activity", "setting": "[28]", "value": 84, "unit": "%"}, {"measurement": "residual activity", "setting": "[29]", "value": 100, "unit": "%"}, {"measurement": "residual activity", "setting": "[30]", "value": 85, "unit": "%"}, {"measurement": "residual activity", "setting": "[31]", "value": 94, "unit": "%"}, {"measurement": "residual activity", "setting": "[32]", "value": 100, "unit": "%"}, {"measurement": "residual activity", "setting": "[33]", "value": 91, "unit": "%"}, {"measurement": "inhibition", "setting": "[34]", "value": -2.58, "unit": "%"}]}
